# In patent US11229664B2, “Treatment of myelosuppression” (priority 2012, dated 2022):
# Where “and” joins values, the source holds several entries; their conditions need not be identical. Equal values may be shown once.
# Key:
# Type in all cases: in vivo, human
# platelets = assay: Clinical trial, metastatic pancreatic cancer: platelet count / thrombocytopenia grade; design: Platelet count at start of cycle, Cycle 4 / Platelet count: unit: ×10^3/μl blood
# Source text: (§1) Male and non-pregnant, non-lactating, female patients, aged 18 to 75, with histologically confirmed metastatic adenocarcinoma of the pancreas were enrolled in the trial. […] Treatment consisted of a series of 28-day cycles, wherein the last day of one cycle (e.g., day 28, cycle 1) was immediately followed by the first day of the next cycle (e.g., day 1, cycle 2). […] Nab-paclitaxel and gemcitabine therapy was given as described in the prescribing information for Abraxane® and Gemzar®. See also, Von Hoff et al., 2011, J. […] As a substantially non-anticoagulant heparinoid, ODSH can be administered at a dose that is greater than the fully anticoagulant dose of unfractionated heparin, without concern for anticoagulant effect, as shown in the Results below. An initial run-in period was conducted in which ten patients were treated with the gemcitabine, nab-paclitaxel, and ODSH regimen described above. After all ten patients had completed at least one 28-day cycle, the data were reviewed and an open-label randomized study initiated, with two arms (ODSH arm and Control arm). In the ODSH arm, the dosing regimen was the same as in the run-in period (gemcitabine, nab-paclitaxel, and ODSH). In the Control arm, patients were given the same gemcitabine and nab-paclitaxel regimen as in the run-in period, but without ODSH. […] Platelet counts, total white blood cell counts, and absolute neutrophil counts were performed. Grading of thrombocytopenia and/or neutropenia was performed according to the following standards: [table]
# neutrophils = assay: Clinical trial, metastatic pancreatic cancer: absolute neutrophil count / neutropenia grade; design: Neutrophil count: unit not given here; conditions: for Neutrophil Values / Neutrophil count: individual patients; for Neutrophil Values: ODSH adjunctive to gemcitabine and nab-paclitaxel; for Neutrophil count: randomized stage
# Source text: as §1
# [1] = system: CA19-9 (carbohydrate antigen 19-9); assay: Clinical trial: serum level of CA19-9; conditions: for CA19-9 Serum levels: individual patients, ODSH adjunctive to gemcitabine and nab-paclitaxel
# Method: Treatment consisted of a series of 28-day cycles, wherein the last day of one cycle (e.g., day 28, cycle 1) was immediately followed by the first day of the next cycle (e.g., day 1, cycle 2). In each 28-day treatment cycle, patients were dosed at days 1, 8, and 15 (three weeks of medication followed by one week of rest) as follows. First, nab-paclitaxel at 125 mg/m^2 was administered as an intravenous infusion over 30 minutes. […] Nab-paclitaxel and gemcitabine therapy was given as described in the prescribing information for Abraxane® and Gemzar®. See also, Von Hoff et al., 2011, J. Clinical Oncology 29:1-7). […]
# Blood samples were also tested on day 1 of each treatment cycle for the serum level of CA19-9 (carbohydrate antigen 19-9) a marker used to assess the efficacy of the chemotherapy agents in treating pancreatic cancer. See. e.g., Maeda, 2011, Int. J. Clin. Oncol. 16(5):539-45. Reduction in the serum level of CA19-9 is indicative of chemotherapeutic efficacy against the pancreatic cancer. Tumor response and disease status was measured according to Response Evaluation Criteria in Solid Tumors (RECIST) Guidelines Version 1.1. Eur. J. Cancer, 2009, 45:228-247. A reduction of at least 30% in the sum of the diameters of target lesions (measurable lesions present at screening, up to 2 lesions per involved organ) was scored as a partial response. Patients were scored as having stable disease where the smallest sum of target lesion diameters neither decreased nor increased sufficiently to qualify as a partial response or progressive disease.
# [2] = ODSH adjunct to gemcitabine/nab-paclitaxel
substance,measurement,setting,value
"substantially 2-O, 3-O desulfated heparin [ODSH]",Platelet count,"platelets; open-label randomized trial, per arm, Cycle 5 Day 15",121
same,Platelet count,"platelets; open-label randomized trial, per arm, Cycle 6 Day 1",371
same,Platelet count,"platelets; open-label randomized trial, per arm, Cycle 6 Day 15",132
same,"Platelet Count, Screen","platelets; prior to entry into the clinical trial protocol, individual patients",321 ×10^3/μl blood and 187 ×10^3/μl blood and 269 ×10^3/μl blood and 267 ×10^3/μl blood and 166 ×10^3/μl blood and 271 ×10^3/μl blood and 204 ×10^3/μl blood and 505 ×10^3/μl blood
same,Platelet count,"platelets; randomized stage, individual patients, Cycle 1 Day 15",231 and 216 and 121 and 103 and 199 and 172 and 162 and 232
same,Platelet count,"platelets; randomized stage, individual patients, Cycle 2 Day 15",110 and 156 and 95 and 74 and 92 and 165
same,Platelet count,"platelets; randomized stage, individual patients, Cycle 3 Day 15",124 and 74 and 76 and 96
same,Platelet count,"platelets; randomized stage, individual patients, Cycle 4 Day 15",31 and 138
same,"Platelet counts, ODSH arm vs Control arm","platelets; randomized stage, gemcitabine + nab-paclitaxel with or without ODSH",statistically significant difference
same,"Median and mean platelet counts at day 15 of the first cycle, ODSH arm vs patients not receiving ODSH","platelets; randomized trial, 5 patients in each arm, p=0.013 unpaired t-test",significantly higher
same,"Platelet recovery by day 1 of a subsequent cycle, ODSH arm vs control arm","platelets; randomized trial, p=0.0004 after 6 cycles, unpaired t-test",enhanced
same,Patients with increased or unchanged neutrophil counts on first day of second cycle vs first day of first cycle,neutrophils; [2],Five out of 10
same,Patients with normal neutrophil counts at the start of the fourth cycle,neutrophils; [2],10 out of 10
same,Patients with normal neutrophil counts at the start of the third cycle,neutrophils; [2],8 out of 9
same,Patients with normal neutrophil counts on the first day of the second treatment cycle,neutrophils; [2],Eight out of 10
same,Mean and median absolute neutrophil counts on the first day of treatment cycles 2 and 3,"neutrophils; all samples (FIG. 10B), ODSH adjunct to gemcitabine/nab-paclitaxel","above 2,000"
same,Patients with no more than mild neutropenia after two doses of treatment,"neutrophils; day 15, first cycle, ODSH adjunct to gemcitabine/nab-paclitaxel",44%
same,Patients with no more than mild neutropenia after five or eight doses of treatment,"neutrophils; day 15 of cycle 2 or day 15 of cycle 3, ODSH adjunct to gemcitabine/nab-paclitaxel",7 out of 10
same,Neutrophil Values,neutrophils; Cycle 1 Day 1 (before treatment),4.3 ×10^3/μl blood (2×) and 3.6 ×10^3/μl blood (2×) and 5.5 ×10^3/μl blood and 2.1 ×10^3/μl blood and 3.3 ×10^3/μl blood
same,Neutrophil Values,neutrophils; Cycle 1 Day 8,1.3 ×10^3/μl blood and 2.1 ×10^3/μl blood and 4.3 ×10^3/μl blood and 0.5 ×10^3/μl blood and 3.0 ×10^3/μl blood and 1.5 ×10^3/μl blood
same,Neutrophil Values,neutrophils; Cycle 1 Day 15,0.7 ×10^3/μl blood (2×) and 1.6 ×10^3/μl blood and 3.6 ×10^3/μl blood and 3.5 ×10^3/μl blood and 1.0 ×10^3/μl blood
same,Neutrophil Values,neutrophils; Cycle 2 Day 1,7.3 ×10^3/μl blood and 1.6 ×10^3/μl blood and 4.6 ×10^3/μl blood and 13.0 ×10^3/μl blood and 2.1 ×10^3/μl blood and 6.0 ×10^3/μl blood and 3.6 ×10^3/μl blood
same,Neutrophil Values,neutrophils; Cycle 2 Day 8,3.8 ×10^3/μl blood and 2.6 ×10^3/μl blood and 3.7 ×10^3/μl blood (2×) and 6.3 ×10^3/μl blood and 1.3 ×10^3/μl blood and 1.9 ×10^3/μl blood
same,Neutrophil Values,neutrophils; Cycle 2 Day 15,1.8 ×10^3/μl blood and 1.7 ×10^3/μl blood and 3.8 ×10^3/μl blood and 0.7 ×10^3/μl blood and 1.5 ×10^3/μl blood and 1.1 ×10^3/μl blood and 1.0 ×10^3/μl blood
same,Neutrophil Values,neutrophils; Cycle 3 Day 1,2.7 ×10^3/μl blood and 2.8 ×10^3/μl blood and 2.2 ×10^3/μl blood and 3.9 ×10^3/μl blood and 1.8 ×10^3/μl blood and 3.2 ×10^3/μl blood
same,Neutrophil Values,neutrophils; Cycle 3 Day 8,1.6 ×10^3/μl blood and 4.2 ×10^3/μl blood and 6.8 ×10^3/μl blood and 3.9 ×10^3/μl blood and 1.4 ×10^3/μl blood (2×)
same,Neutrophil Values,neutrophils; Cycle 3 Day 15,1.5 ×10^3/μl blood (2×) and 1.8 ×10^3/μl blood and 4.5 ×10^3/μl blood and 1.4 ×10^3/μl blood and 0.8 ×10^3/μl blood and 2.6 ×10^3/μl blood
same,Neutrophil Values,neutrophils; Cycle 4 Day 1,2.2 ×10^3/μl blood and 5.2 ×10^3/μl blood and 5.7 ×10^3/μl blood and 5.9 ×10^3/μl blood and 3.5 ×10^3/μl blood and 3.2 ×10^3/μl blood and 2.7 ×10^3/μl blood
same,Neutrophil Values,neutrophils; Cycle 4 Day 8,2.5 ×10^3/μl blood and 2.7 ×10^3/μl blood and 2.2 ×10^3/μl blood and 2.0 ×10^3/μl blood and 1.4 ×10^3/μl blood
same,Neutrophil Values,neutrophils; Cycle 4 Day 15,4.6 ×10^3/μl blood and 2.4 ×10^3/μl blood and 3.4 ×10^3/μl blood and 0.7 ×10^3/μl blood and 1.7 ×10^3/μl blood
same,Neutrophil Values,neutrophils; Cycle 5 Day 1,1.6 ×10^3/μl blood and 3.2 ×10^3/μl blood and 3.3 ×10^3/μl blood and 23.2 ×10^3/μl blood
same,Neutrophil Values,neutrophils; Cycle 5 Day 8,2.1 ×10^3/μl blood and 3.4 ×10^3/μl blood and 1.6 ×10^3/μl blood and 4.1 ×10^3/μl blood
same,Neutrophil Values,neutrophils; Cycle 5 Day 15,0.8 ×10^3/μl blood and 3.9 ×10^3/μl blood and 1.1 ×10^3/μl blood
same,Neutrophil Values,neutrophils; Cycle 6 Day 1,13.5 ×10^3/μl blood and 2.3 ×10^3/μl blood
same,Neutrophil Values,neutrophils; Cycle 6 Day 8,1.3 ×10^3/μl blood and 1.2 ×10^3/μl blood
same,Neutrophil Values,neutrophils; Cycle 6 Day 15,1.7 ×10^3/μl blood and 10.7 ×10^3/μl blood
same,Neutrophil Values,neutrophils; Screen,5.6 ×10^3/μl blood and 5.9 ×10^3/μl blood and 4.0 ×10^3/μl blood (2×) and 5.3 ×10^3/μl blood and 4.3 ×10^3/μl blood and 9.3 ×10^3/μl blood
same,Neutrophil count,neutrophils; Cycle 1 Day 15,2.4 and 1.4 and 4.0 (2×) and 0.8 and 4.7 and 3.0 and 0.3
same,Neutrophil count,neutrophils; Cycle 2 Day 15,1.8 (2×) and 1.6 and 0.8 and 3.7 (2×)
same,Neutrophil count,neutrophils; Cycle 3 Day 15,1.0 and 1.6 and 0.8 and 5.4
same,Neutrophil count,neutrophils; Cycle 4 Day 15,4.8 and 4.1
same,Patients in whom serum CA19-9 level decreased,[1]; [2],8 of 10
same,CA19-9 Serum levels,[1]; Cycle 1 Day 1,"395 U/mL and 70,086 U/mL and 2,138 U/mL and 483 U/mL and 11 U/mL and 326 U/mL and 4,775 U/mL and 125 U/mL and 6,186 U/mL and 6,275 U/mL"
same,CA19-9 Serum levels,[1]; Cycle 2 Day 1,"490 U/mL and 22,958 U/mL and 502 U/mL and 453 U/mL and 17 U/mL and 710 U/mL and 5,934 U/mL and 71 U/mL and 4,392 U/mL and 4,018 U/mL"
same,CA19-9 Serum levels,[1]; Cycle 3 Day 1,"251 U/mL and 10,286 U/mL and 328 U/mL and 205 U/mL and 15 U/mL and 164 U/mL and 8,529 U/mL and 27 U/mL and 2,669 U/mL and 1,433 U/mL"
same,CA19-9 Serum levels,[1]; Cycle 4 Day 1,"108 U/mL and 288 U/mL and 110 U/mL and 20 U/mL and 69 U/mL and 9,926 U/mL and 15 U/mL and 2405 U/mL and 348 U/mL"
